Measured values reported in publication PMC8776063, “Aurora Kinase A Is Involved in Controlling the Localization of Aquaporin-2 in Renal Principal Cells” (International Journal of Molecular Sciences, 2022).
Read-outs that look alike come from different tables or passages of the source.

Columns and labels:
[1] = target: T1, BMX (Homo sapiens, UniProt P51813); assay: Thermal shift assay; type: binding; details: read-out: ΔTm BMX
T1 construct: purchased in-house thermal shift (DSF) kinase panel (SGC Frankfurt); Promega NanoBRET for AURKA/B/C

[2] = target: T2, CASK (Homo sapiens, UniProt O14936); assay: Thermal shift assay; type: binding; details: read-out: ΔTm CASK
T2 construct: purchased in-house thermal shift (DSF) kinase panel (SGC Frankfurt); Promega NanoBRET for AURKA/B/C
T2 sequence (O14936 1-337): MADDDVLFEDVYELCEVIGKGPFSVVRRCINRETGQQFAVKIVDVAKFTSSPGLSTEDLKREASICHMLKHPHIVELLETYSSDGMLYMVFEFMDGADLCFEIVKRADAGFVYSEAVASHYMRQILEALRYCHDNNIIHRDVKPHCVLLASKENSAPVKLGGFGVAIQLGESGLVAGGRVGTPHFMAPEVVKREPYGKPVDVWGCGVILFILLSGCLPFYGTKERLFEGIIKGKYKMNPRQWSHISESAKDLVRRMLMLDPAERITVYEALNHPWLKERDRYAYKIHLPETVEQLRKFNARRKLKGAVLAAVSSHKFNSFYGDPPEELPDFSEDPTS

[3] = target: T3, CDK2 (Homo sapiens, UniProt P24941); assay: Thermal shift assay; type: binding; details: read-out: ΔTm CDK2
T3 construct: purchased in-house thermal shift (DSF) kinase panel (SGC Frankfurt); Promega NanoBRET for AURKA/B/C

[4] = target: T4, DAPK3 (Homo sapiens, UniProt O43293); assay: Thermal shift assay; type: binding; details: read-out: ΔTm DAPK3
T4 construct: purchased in-house thermal shift (DSF) kinase panel (SGC Frankfurt); Promega NanoBRET for AURKA/B/C

[5] = target: T5, FES (Homo sapiens, UniProt P07332); assay: Thermal shift assay; type: binding; details: read-out: ΔTm FES
T5 construct: purchased in-house thermal shift (DSF) kinase panel (SGC Frankfurt); Promega NanoBRET for AURKA/B/C

[6] = target: T6, FGFR2 (Homo sapiens, UniProt P21802); assay: Thermal shift assay; type: binding; details: read-out: ΔTm FGFR2
T6 construct: purchased in-house thermal shift (DSF) kinase panel (SGC Frankfurt); Promega NanoBRET for AURKA/B/C

[7] = target: T7, GSG2 (Homo sapiens, UniProt Q8TF76); assay: Thermal shift assay; type: binding; details: read-out: ΔTm GSG2
T7 construct: purchased in-house thermal shift (DSF) kinase panel (SGC Frankfurt); Promega NanoBRET for AURKA/B/C
T7 sequence (Q8TF76 465-798): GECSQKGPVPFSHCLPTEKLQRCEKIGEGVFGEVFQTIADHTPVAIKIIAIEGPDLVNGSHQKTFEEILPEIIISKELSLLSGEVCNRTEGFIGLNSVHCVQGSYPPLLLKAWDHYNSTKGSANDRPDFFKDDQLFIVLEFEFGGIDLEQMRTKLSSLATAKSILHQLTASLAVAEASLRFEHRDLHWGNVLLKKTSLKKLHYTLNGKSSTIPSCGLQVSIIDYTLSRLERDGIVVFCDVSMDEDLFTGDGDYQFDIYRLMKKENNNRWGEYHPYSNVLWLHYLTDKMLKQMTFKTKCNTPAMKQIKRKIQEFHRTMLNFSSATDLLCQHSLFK

[8] = target: T8, MAP2K6 (Homo sapiens, UniProt P52564); assay: Thermal shift assay; type: binding; details: read-out: ΔTm MAP2K6
T8 construct: purchased in-house thermal shift (DSF) kinase panel (SGC Frankfurt); Promega NanoBRET for AURKA/B/C
T8 sequence (P52564 47-334): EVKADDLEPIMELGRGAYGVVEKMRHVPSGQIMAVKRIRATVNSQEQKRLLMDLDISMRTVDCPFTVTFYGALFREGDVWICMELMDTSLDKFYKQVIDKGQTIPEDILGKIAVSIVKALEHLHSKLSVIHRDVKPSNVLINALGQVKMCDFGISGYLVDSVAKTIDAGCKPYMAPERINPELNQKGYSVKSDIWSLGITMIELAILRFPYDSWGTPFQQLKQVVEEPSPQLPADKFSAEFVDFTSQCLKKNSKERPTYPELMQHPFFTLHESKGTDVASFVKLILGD

[9] = target: T9, MAPK9 (Homo sapiens, UniProt P45984); assay: Thermal shift assay; type: binding; details: read-out: ΔTm MAPK9
T9 construct: purchased in-house thermal shift (DSF) kinase panel (SGC Frankfurt); Promega NanoBRET for AURKA/B/C

[10] = target: T10, MERTK (Homo sapiens, UniProt Q12866); assay: Thermal shift assay; type: binding; details: read-out: ΔTm MERTK
T10 construct: purchased in-house thermal shift (DSF) kinase panel (SGC Frankfurt); Promega NanoBRET for AURKA/B/C
T10 sequence (Q12866 570-864): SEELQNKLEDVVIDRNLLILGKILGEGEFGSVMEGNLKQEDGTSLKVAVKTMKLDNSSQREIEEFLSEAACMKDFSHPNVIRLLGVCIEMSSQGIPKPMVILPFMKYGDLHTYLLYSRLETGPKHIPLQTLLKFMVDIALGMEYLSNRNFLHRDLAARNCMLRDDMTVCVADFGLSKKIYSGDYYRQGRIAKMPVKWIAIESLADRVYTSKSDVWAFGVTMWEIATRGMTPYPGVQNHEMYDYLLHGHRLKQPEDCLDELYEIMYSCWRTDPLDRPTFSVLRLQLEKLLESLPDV

[11] = target: T11, STK17A (Homo sapiens, UniProt Q9UEE5); assay: Thermal shift assay; type: binding; details: read-out: ΔTm STK17A
T11 construct: purchased in-house thermal shift (DSF) kinase panel (SGC Frankfurt); Promega NanoBRET for AURKA/B/C
T11 sequence (Q9UEE5 61-321): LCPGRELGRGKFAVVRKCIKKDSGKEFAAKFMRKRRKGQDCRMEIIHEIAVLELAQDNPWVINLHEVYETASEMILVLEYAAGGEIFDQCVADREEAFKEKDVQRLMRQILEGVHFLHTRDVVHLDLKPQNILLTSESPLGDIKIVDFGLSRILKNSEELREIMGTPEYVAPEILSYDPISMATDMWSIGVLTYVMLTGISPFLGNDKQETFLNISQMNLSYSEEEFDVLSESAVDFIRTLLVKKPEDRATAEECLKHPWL

[12] = target: T12, PAK4 (Homo sapiens, UniProt O96013); assay: Thermal shift assay; type: binding; details: read-out: ΔTm PAK4
T12 construct: purchased in-house thermal shift (DSF) kinase panel (SGC Frankfurt); Promega NanoBRET for AURKA/B/C

[13] = target: T13, STK26 (Homo sapiens, UniProt Q9P289); assay: Thermal shift assay; type: binding; details: read-out: ΔTm STK26
T13 construct: purchased in-house thermal shift (DSF) kinase panel (SGC Frankfurt); Promega NanoBRET for AURKA/B/C

[14] = test system: MCD4 cells; assay: AQP2 redistribution, immunofluorescence microscopy; details: forskolin 30 µM, 30 min; for inhibition of the forskolin-induced redistribution of AQP2 to the plasma membrane: compound 30 µM, 1 h (Aurora-A inhibitor I 1-30 µM)
[15] = test system: primary IMCD cells; assay: AQP2 redistribution, immunofluorescence microscopy; details: for inhibition of the AVP-induced redistribution of AQP2 to the plasma membrane: 1 h (Aurora-A inhibitor I 1-30 µM)
[16] = target: AURKB (Homo sapiens, UniProt Q96GD4); assay: Thermal shift assay; type: binding; design: full-length wild-type AURKA, AURKB, and AURKC were obtained as plasmids cloned in frame with a C-terminal NanoLuc-fusion; details: read-out: ΔTm AURKB
[17] = compound 20 µM, AVP 100 nM, 30 min

T1 sequence (P51813 411-675): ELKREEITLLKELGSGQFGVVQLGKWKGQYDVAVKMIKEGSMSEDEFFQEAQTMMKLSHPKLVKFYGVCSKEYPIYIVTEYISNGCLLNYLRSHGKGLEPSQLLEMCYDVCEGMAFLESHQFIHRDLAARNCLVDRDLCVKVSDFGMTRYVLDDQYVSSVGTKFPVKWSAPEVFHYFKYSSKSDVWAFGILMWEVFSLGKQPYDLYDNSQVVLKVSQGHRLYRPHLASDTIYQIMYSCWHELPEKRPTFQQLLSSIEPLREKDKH
T6 sequence (P21802 458-768): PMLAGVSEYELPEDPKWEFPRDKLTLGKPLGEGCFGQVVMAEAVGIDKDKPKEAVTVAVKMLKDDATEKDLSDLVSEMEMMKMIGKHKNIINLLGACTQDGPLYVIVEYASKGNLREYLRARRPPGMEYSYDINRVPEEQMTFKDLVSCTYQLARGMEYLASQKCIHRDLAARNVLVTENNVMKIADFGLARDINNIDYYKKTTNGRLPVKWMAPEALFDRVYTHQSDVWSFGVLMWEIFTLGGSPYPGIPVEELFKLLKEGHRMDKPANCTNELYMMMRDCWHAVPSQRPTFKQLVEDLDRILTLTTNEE
T12 sequence (O96013 291-591): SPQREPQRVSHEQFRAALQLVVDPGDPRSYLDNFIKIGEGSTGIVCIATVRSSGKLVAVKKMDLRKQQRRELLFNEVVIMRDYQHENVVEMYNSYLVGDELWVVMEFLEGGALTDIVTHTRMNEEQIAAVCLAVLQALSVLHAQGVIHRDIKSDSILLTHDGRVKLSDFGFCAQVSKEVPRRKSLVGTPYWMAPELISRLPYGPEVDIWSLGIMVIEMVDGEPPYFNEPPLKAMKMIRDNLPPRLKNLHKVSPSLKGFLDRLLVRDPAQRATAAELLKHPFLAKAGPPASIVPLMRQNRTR
T5 sequence (P07332 whole entry): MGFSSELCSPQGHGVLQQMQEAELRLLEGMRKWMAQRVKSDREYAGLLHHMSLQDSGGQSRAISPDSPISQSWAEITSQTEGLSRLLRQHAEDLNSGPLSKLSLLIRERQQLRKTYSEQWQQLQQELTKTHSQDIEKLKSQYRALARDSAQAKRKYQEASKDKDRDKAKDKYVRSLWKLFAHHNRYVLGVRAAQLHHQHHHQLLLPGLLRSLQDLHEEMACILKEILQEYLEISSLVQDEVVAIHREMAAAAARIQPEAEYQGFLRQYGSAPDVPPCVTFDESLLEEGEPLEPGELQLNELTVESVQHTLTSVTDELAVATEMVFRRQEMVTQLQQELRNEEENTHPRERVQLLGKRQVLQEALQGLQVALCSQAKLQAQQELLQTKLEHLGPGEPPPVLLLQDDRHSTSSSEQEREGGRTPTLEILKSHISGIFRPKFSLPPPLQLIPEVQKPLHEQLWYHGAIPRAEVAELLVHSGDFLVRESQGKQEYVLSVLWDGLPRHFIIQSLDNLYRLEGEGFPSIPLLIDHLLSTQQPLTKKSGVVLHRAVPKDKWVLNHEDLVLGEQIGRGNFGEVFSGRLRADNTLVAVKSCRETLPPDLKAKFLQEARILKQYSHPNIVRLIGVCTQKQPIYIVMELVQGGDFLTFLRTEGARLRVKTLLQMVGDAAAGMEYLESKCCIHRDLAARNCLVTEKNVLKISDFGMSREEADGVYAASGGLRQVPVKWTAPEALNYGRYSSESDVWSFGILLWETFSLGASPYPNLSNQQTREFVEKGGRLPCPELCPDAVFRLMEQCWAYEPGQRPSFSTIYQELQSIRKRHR
Sequence of AURKB (Q96GD4 whole entry, the tested form may be a part): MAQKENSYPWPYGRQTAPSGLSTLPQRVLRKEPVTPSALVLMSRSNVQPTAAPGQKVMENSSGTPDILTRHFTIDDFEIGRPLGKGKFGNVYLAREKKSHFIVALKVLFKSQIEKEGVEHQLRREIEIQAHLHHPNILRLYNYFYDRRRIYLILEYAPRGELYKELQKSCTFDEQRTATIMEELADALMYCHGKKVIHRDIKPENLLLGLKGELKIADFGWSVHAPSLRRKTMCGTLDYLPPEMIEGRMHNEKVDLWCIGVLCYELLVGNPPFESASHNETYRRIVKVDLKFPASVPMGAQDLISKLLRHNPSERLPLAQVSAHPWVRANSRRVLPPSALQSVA
T9 sequence (P45984 whole entry): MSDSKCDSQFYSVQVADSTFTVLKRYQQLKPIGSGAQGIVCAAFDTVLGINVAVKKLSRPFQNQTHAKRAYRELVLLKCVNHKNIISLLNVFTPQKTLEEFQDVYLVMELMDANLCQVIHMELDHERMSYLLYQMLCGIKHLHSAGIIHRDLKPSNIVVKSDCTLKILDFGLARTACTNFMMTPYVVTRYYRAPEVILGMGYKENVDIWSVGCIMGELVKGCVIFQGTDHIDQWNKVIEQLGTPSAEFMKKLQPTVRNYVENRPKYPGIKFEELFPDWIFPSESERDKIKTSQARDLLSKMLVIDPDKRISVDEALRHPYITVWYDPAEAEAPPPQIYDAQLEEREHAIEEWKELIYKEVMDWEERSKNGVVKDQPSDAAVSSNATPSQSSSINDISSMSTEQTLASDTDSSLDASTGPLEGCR
T4 sequence (O43293 9-289): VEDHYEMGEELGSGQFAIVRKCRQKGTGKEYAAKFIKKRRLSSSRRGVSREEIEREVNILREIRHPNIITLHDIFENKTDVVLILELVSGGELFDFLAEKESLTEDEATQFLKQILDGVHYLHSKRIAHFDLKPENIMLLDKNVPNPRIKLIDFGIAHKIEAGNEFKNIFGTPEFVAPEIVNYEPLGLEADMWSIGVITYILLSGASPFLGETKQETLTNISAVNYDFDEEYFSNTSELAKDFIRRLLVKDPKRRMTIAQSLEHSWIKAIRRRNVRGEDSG
T13 sequence (Q9P289 1-300): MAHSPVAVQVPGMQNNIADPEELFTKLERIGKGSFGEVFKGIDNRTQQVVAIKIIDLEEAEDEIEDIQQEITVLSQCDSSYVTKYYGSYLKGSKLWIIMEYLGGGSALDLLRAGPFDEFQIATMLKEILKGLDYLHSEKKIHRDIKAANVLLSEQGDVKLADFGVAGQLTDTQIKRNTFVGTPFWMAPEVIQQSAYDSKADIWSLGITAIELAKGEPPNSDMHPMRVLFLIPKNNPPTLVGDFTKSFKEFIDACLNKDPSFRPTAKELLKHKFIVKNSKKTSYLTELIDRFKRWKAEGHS

Structure (SMILES)	ΔTm at 10 µM ([1]; compound 10 µM, n = 3) [°C]	ΔTm at 10 µM ([2]; compound 10 µM, n = 3) [°C]	ΔTm at 10 µM ([3]; compound 10 µM, n = 3) [°C]	ΔTm at 10 µM ([4]; compound 10 µM, n = 3) [°C]	ΔTm at 10 µM ([5]; compound 10 µM, n = 3) [°C]	ΔTm at 10 µM ([6]; compound 10 µM, n = 3) [°C]	ΔTm at 10 µM ([7]; compound 10 µM, n = 3) [°C]	ΔTm at 10 µM ([8]; compound 10 µM, n = 3) [°C]	ΔTm at 10 µM ([9]; compound 10 µM, n = 3) [°C]	ΔTm at 10 µM ([10]; compound 10 µM, n = 3) [°C]	ΔTm at 10 µM ([11]; compound 10 µM, n = 3) [°C]	ΔTm at 10 µM ([12]; compound 10 µM, n = 3) [°C]	ΔTm at 10 µM ([13]; compound 10 µM, n = 3) [°C]	inhibition of the forskolin-induced redistribution of AQP2 to the plasma membrane [14]	inhibition of the AVP-induced redistribution of AQP2 to the plasma membrane [15, 17]	ΔTm at 10 µM ([16]; compound 10 µM, n = 3) [°C]	other results
O=C(Cc1ccc(Nc2ncc(F)c(Nc3ccc(C(=O)Nc4ccccc4Cl)cc3)n2)cc1)NCCN1CCOCC1 [ERJ2-04]	1.5	0.1	0.7	2.4	0.5	1.5	0	0.4	1.9	0.9	1.4	0.3	0.4	not different from that in cells treated with the compound solvent, DMSO	no significant difference between resting and AVP-stimulated cells	-0.8	–
CCN1CCN(C(=O)Cc2ccc(Nc3ncc(F)c(Nc4ccc(C(=O)O)cc4)n3)cc2)CC1 [ERJ2-12]	0.9	0	0.4	0.7	0.4	2.9	0	0.8	3	0.3	0.4	0.1	-0.2	not different from that in cells treated with the compound solvent, DMSO	significantly differed	-2.5	–
CCN1CCN(C(=O)Cc2ccc(Nc3ncc(F)c(Nc4ccc(C(=O)Nc5ccccc5Cl)cc4)n3)cc2)CC1 [Aurora-A inhibitor I, reference compound]	–	–	–	–	–	–	–	–	–	–	–	–	–	inhibits	inhibits	–	ΔTm at 10 µM [1]: 2.1 °C; ΔTm at 10 µM [2]: 0.2 °C; ΔTm at 10 µM [3]: 1.4 °C; ΔTm at 10 µM [4]: 2.8 °C; ΔTm at 10 µM [5]: 1.4 °C; ΔTm at 10 µM [6]: 2.5 °C; ΔTm at 10 µM [7]: 0 °C; ΔTm at 10 µM [8]: 0.6 °C; ΔTm at 10 µM [9]: 2.9 °C; ΔTm at 10 µM [10]: 1.7 °C; ΔTm at 10 µM [11]: 1.9 °C; ΔTm at 10 µM [12]: 0.8 °C; ΔTm at 10 µM [13]: 0.6 °C; effective concentration for inhibition of AQP2 redistribution ([14]; 1, 10 or 30 µM, 1 h): greater than 1 µM; effective concentration for inhibition of AQP2 redistribution ([15]; 1, 10 or 30 µM, 1 h, AVP 100 nM, 30 min): greater than 1 µM; ΔTm at 10 µM [16]: -0.5 °C
NC(=O)Cc1ccc(Nc2ncc(F)c(Nc3ccc(C(=O)Nc4ccccc4Cl)cc3)n2)cc1 [ERJ2-06]	2.1	0.1	4.1	4.8	1.4	2.4	0.2	0.8	2.9	1.3	2.2	0.3	1.7	–	no significant difference between resting and AVP-stimulated cells	0.5	–
CCN1CCN(C(=O)Cc2ccc(Nc3ncc(F)c(Nc4ccc(C(=O)Nc5ccccc5)cc4)n3)cc2)CC1 [ERJ2-11]	2.7	-0.1	2.6	3.5	1.7	2.9	0	0.7	2.8	1.7	1.8	1.1	1.3	–	no significant difference between resting and AVP-stimulated cells	-0.2	AQP2 fluorescence intensity ratio compared to DMSO-treated control cells ([15]; compound 20 µM, 1 h): significant decrease
